Earlier results on one molecule are cited in patent publication US7659260B2, “Tamponade compositions and methods for retinal repair” (priority 2005, dated 2010).

The conditions of data set [1]: at 25° C.
For data set [2] the following is noted: reportedly; unless ingested in very large amounts.

As to `[2H]O[2H]` [Heavy water, deuterium-containing heavy water (D2O)], in data set [1], the relative density is 1.1044. Moreover, the toxicity entry in data set [2] is given as “non-toxic, unless ingested in very large amounts”.
